# Reference: PubChem BioAssay AID248 (DTP/NCI, 2004)
# Where “and” joins values, the source holds several entries; their conditions need not be identical. Equal entries are not always repeated. Toxic doses and inconclusive results are not listed.
# System: L1210 leukemia ip in BDF1 mice, survival T/C
# Test: NCI In Vivo Anticancer Drug Screen. Data for tumor model L1210 Leukemia (intraperitoneal) in B6D2F1 (BDF1) mice
# Conditions: endpoint: mean survival time, higher = longer survival
# Outline: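 Transplantable tumor model; survival measured in treated vs vehicle control mice. Value = treated/control.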
compound,measurement,setting,value
N[C@@H](Cc1ccc(N(CCCl)CCCl)cc1)C(=O)O,T/C,"dose: 0.1 mg/kg/injection, schedule: Q01DX015 (ip), vehicle: carboxymethylcellulose (CMC)",101 % of control and 102 % of control
same,T/C,"dose: 0.13 mg/kg/injection, schedule: Q01DX009 (ip), vehicle: Klucel (hydroxypropylcellulose) (HPC)",110 % of control
same,T/C,"dose: 0.2 mg/kg/injection, schedule: Q01DX015 (ip), vehicle: carboxymethylcellulose (CMC)",104 % of control and 111 % of control
same,T/C,"dose: 0.25 mg/kg/injection, schedule: Q01DX009 (ip), vehicle: Klucel (hydroxypropylcellulose) (HPC)",105 % of control and 115 % of control
same,T/C,"dose: 0.39 mg/kg/injection, schedule: Q01DX001 (ip), vehicle: carboxymethylcellulose (CMC)",102 % of control
same,T/C,"dose: 0.4 mg/kg/injection, schedule: Q01DX015 (ip), vehicle: carboxymethylcellulose (CMC)",109 % of control and 117 % of control
same,T/C,"dose: 0.45 mg/kg/injection, schedule: Q04DX002 (ip), vehicle: Klucel (hydroxypropylcellulose) (HPC)",96 % of control
same,T/C,"dose: 0.5 mg/kg/injection, schedule: Q01DX005 (ip), vehicle: saline",111 % of control
same,T/C,"dose: 0.5 mg/kg/injection, schedule: Q01DX009 (ip), vehicle: Klucel (hydroxypropylcellulose) (HPC)",115 % of control and 116 % of control
same,T/C,"dose: 0.5 mg/kg/injection, schedule: Q01DX009 (ip), vehicle: saline",120 % of control
same,T/C,"dose: 0.5 mg/kg/injection, schedule: Q03DX Z (ip), vehicle: carboxymethylcellulose (CMC)",113 % of control
same,T/C,"dose: 0.5 mg/kg/injection, schedule: Q03HX008 (ip), vehicle: saline",114 % of control
same,T/C,"dose: 0.5 mg/kg/injection, schedule: Q03HX016 (ip), vehicle: saline",124 % of control
same,T/C,"dose: 0.78 mg/kg/injection, schedule: Q01DX001 (ip), vehicle: carboxymethylcellulose (CMC)",108 % of control
same,T/C,"dose: 0.8 mg/kg/injection, schedule: Q01DX015 (ip), vehicle: carboxymethylcellulose (CMC)",121 % of control
same,T/C,"dose: 0.9 mg/kg/injection, schedule: Q04DX002 (ip), vehicle: Klucel (hydroxypropylcellulose) (HPC)",104 % of control and 115 % of control
same,T/C,"dose: 1.0 mg/kg/injection, schedule: Q01DX005 (ip), vehicle: saline",123 % of control
same,T/C,"dose: 1.0 mg/kg/injection, schedule: Q01DX006 (iv), vehicle: carboxymethylcellulose (CMC)",107 % of control
same,T/C,"dose: 1.0 mg/kg/injection, schedule: Q01DX009 (oral), vehicle: saline",111 % of control
same,T/C,"dose: 1.0 mg/kg/injection, schedule: Q01DX Z (im), vehicle: carboxymethylcellulose (CMC)",96 % of control
same,T/C,"dose: 1.0 mg/kg/injection, schedule: Q01DX Z (ip), vehicle: carboxymethylcellulose (CMC)",94 % of control
same,T/C,"dose: 1.0 mg/kg/injection, schedule: Q01DX Z (sc), vehicle: carboxymethylcellulose (CMC)",94 % of control
same,T/C,"dose: 1.0 mg/kg/injection, schedule: Q03HX008 (ip), vehicle: saline",119 % of control
same,T/C,"dose: 1.0 mg/kg/injection, schedule: Q#A X Z (ip), vehicle: carboxymethylcellulose (CMC)",94 % of control
same,T/C,"dose: 1.13 mg/kg/injection, schedule: Q01DX001 (ip), vehicle: carboxymethylcellulose (CMC)",111 % of control and 121 % of control
same,T/C,"dose: 1.56 mg/kg/injection, schedule: Q01DX001 (ip), vehicle: saline",104 % of control and 107 % of control
same,T/C,"dose: 1.6 mg/kg/injection, schedule: Q01DX015 (ip), vehicle: carboxymethylcellulose (CMC)",154 % of control
same,T/C,"dose: 1.8 mg/kg/injection, schedule: Q04DX002 (ip), vehicle: Klucel (hydroxypropylcellulose) (HPC)",117 % of control and 118 % of control
same,T/C,"dose: 2.0 mg/kg/injection, schedule: Q01DX006 (iv), vehicle: carboxymethylcellulose (CMC)",110 % of control
same,T/C,"dose: 2.0 mg/kg/injection, schedule: Q01DX Z (im), vehicle: carboxymethylcellulose (CMC)",98 % of control
same,T/C,"dose: 2.0 mg/kg/injection, schedule: Q01DX Z (ip), vehicle: carboxymethylcellulose (CMC)",93 % of control
same,T/C,"dose: 2.0 mg/kg/injection, schedule: Q01DX Z (oral), vehicle: carboxymethylcellulose (CMC)",115 % of control
same,T/C,"dose: 2.0 mg/kg/injection, schedule: Q01DX Z (sc), vehicle: carboxymethylcellulose (CMC)",104 % of control
same,T/C,"dose: 2.0 mg/kg/injection, schedule: Q03DX Z (ip), vehicle: carboxymethylcellulose (CMC)",153 % of control
same,T/C,"dose: 2.16 mg/kg/injection, schedule: Q04DX003 (ip), vehicle: saline",151 % of control
same,T/C,"dose: 2.37 mg/kg/injection, schedule: Q01DX009 (ip), vehicle: other",150 % of control
same,T/C,"dose: 3.0 mg/kg/injection, schedule: Q03DX Z (ip), vehicle: carboxymethylcellulose (CMC)",115 % of control
same,T/C,"dose: 3.12 mg/kg/injection, schedule: Q01DX001 (ip), vehicle: saline",109 % of control and 112 % of control
same,T/C,"dose: 3.6 mg/kg/injection, schedule: Q03HX024 (ip), vehicle: other",104 % of control
same,T/C,"dose: 4.0 mg/kg/injection, schedule: Q01DX001 (ip), vehicle: saline",124 % of control
same,T/C,"dose: 4.0 mg/kg/injection, schedule: Q01DX001 (sc), vehicle: saline",121 % of control
same,T/C,"dose: 4.0 mg/kg/injection, schedule: Q01DX006 (iv), vehicle: carboxymethylcellulose (CMC)",102 % of control
same,T/C,"dose: 4.0 mg/kg/injection, schedule: Q01DX009 (oral), vehicle: saline",151 % of control
same,T/C,"dose: 4.0 mg/kg/injection, schedule: Q01DX Z (im), vehicle: carboxymethylcellulose (CMC)",104 % of control
same,T/C,"dose: 4.0 mg/kg/injection, schedule: Q01DX Z (ip), vehicle: carboxymethylcellulose (CMC)",98 % of control
same,T/C,"dose: 4.0 mg/kg/injection, schedule: Q01DX Z (oral), vehicle: carboxymethylcellulose (CMC)",104 % of control
same,T/C,"dose: 4.0 mg/kg/injection, schedule: Q01DX Z (sc), vehicle: carboxymethylcellulose (CMC)",102 % of control
same,T/C,"dose: 4.0 mg/kg/injection, schedule: Q03HX024 (ip), vehicle: saline",122 % of control
same,T/C,"dose: 4.0 mg/kg/injection, schedule: Q#A X Z (ip), vehicle: carboxymethylcellulose (CMC)",110 % of control
same,T/C,"dose: 6.0 mg/kg/injection, schedule: Q03DX Z (ip), vehicle: carboxymethylcellulose (CMC)",106 % of control
same,T/C,"dose: 6.25 mg/kg/injection, schedule: Q01DX001 (ip), vehicle: saline",120 % of control
same,T/C,"dose: 7.0 mg/kg/injection, schedule: Q01DX001 (ip), vehicle: carboxymethylcellulose (CMC)",110 % of control and 115 % of control
same,T/C,"dose: 7.0 mg/kg/injection, schedule: Q07DX Z (ip), vehicle: carboxymethylcellulose (CMC)",107 % of control
same,T/C,"dose: 7.5 mg/kg/injection, schedule: Q01DX009 (ip), vehicle: saline",100 % of control and 107 % of control
same,T/C,"dose: 8.0 mg/kg/injection, schedule: Q01DX001 (oral), vehicle: saline",123 % of control
same,T/C,"dose: 8.0 mg/kg/injection, schedule: Q01DX001 (sc), vehicle: saline",117 % of control
same,T/C,"dose: 8.0 mg/kg/injection, schedule: Q01DX005 (ip), vehicle: saline",154 % of control
same,T/C,"dose: 8.0 mg/kg/injection, schedule: Q01DX006 (iv), vehicle: carboxymethylcellulose (CMC)",104 % of control
same,T/C,"dose: 8.0 mg/kg/injection, schedule: Q01DX009 (ip), vehicle: Klucel (hydroxypropylcellulose) (HPC)",121 % of control
same,T/C,"dose: 8.0 mg/kg/injection, schedule: Q01DX009 (ip), vehicle: saline",114 % of control
same,T/C,"dose: 8.0 mg/kg/injection, schedule: Q01DX009 (oral), vehicle: saline",112 % of control
same,T/C,"dose: 8.0 mg/kg/injection, schedule: Q01DX009 (sc), vehicle: saline",95 % of control
same,T/C,"dose: 8.0 mg/kg/injection, schedule: Q01DX Z (im), vehicle: carboxymethylcellulose (CMC)",98 % of control
same,T/C,"dose: 8.0 mg/kg/injection, schedule: Q01DX Z (oral), vehicle: carboxymethylcellulose (CMC)",104 % of control
same,T/C,"dose: 8.0 mg/kg/injection, schedule: Q01DX Z (sc), vehicle: carboxymethylcellulose (CMC)",96 % of control
same,T/C,"dose: 12.0 mg/kg/injection, schedule: Q03DX Z (ip), vehicle: carboxymethylcellulose (CMC)",105 % of control
same,T/C,"dose: 12.5 mg/kg/injection, schedule: Q01DX Z (ip), vehicle: carboxymethylcellulose (CMC)",102 % of control
same,T/C,"dose: 14.0 mg/kg/injection, schedule: Q01DX001 (ip), vehicle: carboxymethylcellulose (CMC)",115 % of control and 117 % of control
same,T/C,"dose: 14.0 mg/kg/injection, schedule: Q07DX Z (ip), vehicle: carboxymethylcellulose (CMC)",98 % of control
same,T/C,"dose: 16.0 mg/kg/injection, schedule: Q01DX Z (ip), vehicle: carboxymethylcellulose (CMC)",106 % of control
same,T/C,"dose: 16.0 mg/kg/injection, schedule: Q01DX Z (oral), vehicle: carboxymethylcellulose (CMC)",102 % of control
same,T/C,"dose: 16.7 mg/kg/injection, schedule: Q01DX001 (ip), vehicle: saline",123 % of control
same,T/C,"dose: 24.0 mg/kg/injection, schedule: Q03DX Z (ip), vehicle: carboxymethylcellulose (CMC)",105 % of control
same,T/C,"dose: 25.0 mg/kg/injection, schedule: Q01DX001 (ip), vehicle: saline",154 % of control
same,T/C,"dose: 28.0 mg/kg/injection, schedule: Q01DX001 (ip), vehicle: carboxymethylcellulose (CMC)",107 % of control
same,T/C,"dose: 28.0 mg/kg/injection, schedule: Q07DX Z (ip), vehicle: carboxymethylcellulose (CMC)",94 % of control
same,T/C,"dose: 29.0 mg/kg/injection, schedule: Q04DX003 (ip), vehicle: other",95 % of control
same,T/C,"dose: 30.0 mg/kg/injection, schedule: Q01DX001 (ip), vehicle: carboxymethylcellulose (CMC)",153 % of control
same,T/C,"dose: 32.0 mg/kg/injection, schedule: Q01DX001 (ip), vehicle: saline",121 % of control
same,T/C,"dose: 32.0 mg/kg/injection, schedule: Q01DX001 (oral), vehicle: saline",93 % of control
same,T/C,"dose: 32.0 mg/kg/injection, schedule: Q01DX Z (oral), vehicle: carboxymethylcellulose (CMC)",104 % of control
same,T/C,"dose: 56.0 mg/kg/injection, schedule: Q01DX001 (ip), vehicle: carboxymethylcellulose (CMC)",107 % of control and 117 % of control
same,T/C,"dose: 56.0 mg/kg/injection, schedule: Q07DX Z (ip), vehicle: carboxymethylcellulose (CMC)",96 % of control
